Data taken from patent US20040253665A1, “Novel peptide-producing enzyme, microbe producing the enzyme and method for dipeptide synthesis using them” (AJINOMOTO CO., INC., priority 2002, published 2004).
Non-standard residues stand in square brackets, D forms with d. Residues, ends and D or L forms follow the SMILES beside them. *: point of attachment. 2Nal = N[C@@H](Cc1ccc2ccccc2c1)C(=O)O; Tle = CC(C)(C)[C@H](N)C(=O)O; tBu = CC(C)(C)*

tested on: peptide-producing enzyme (Mono S fraction) from Empedobacter brevis strain FERM BP-8113; assay: Enzyme substrate specificity (1)-(10), (13), (14); format: biochemical; design: key: +: those peptides for which production was confirmed but which were unable to be quantified due to the absence of a standard; a trace amount; details: 100 mM L-alanine methyl ester hydrochloride, L-amino acid 150 mM, pH 9.0, 25° C., 3 hours
From the text: (§1) Ester specificity was examined in the case of using L-amino acid ester for the carboxy component. […] The amounts of L-Ala-L-Gln produced in this reaction are shown in Table 4 (HCl represents hydrochloride in Table 4). Peptide production was examined in the case of using L-alanine methyl ester for the carboxy component and using various L-amino acids for the amine component. […] (The “+” mark indicates those peptides for which production was confirmed but which were unable to be quantified due to the absence of a standard, while “tr” indicates a trace amount.) Peptide production was examined in the case of using various types of L-amino acid methyl esters for the carboxy component and using L-glutamine for the amine component. […] Peptide production was examined in the case of using various L-amino acid methyl esters for the carboxy component and various L-amino acids for the amine component. […] (The “tr” indicates a trace amount.) Furthermore, Tween-80 was added to the reaction system to a final concentration of 0.1% in the case of using L-Trp-OMe. (The “+” mark indicates those peptides for which production was confirmed but which were unable to be quantified due to the absence of a standard.) […] (The “tr” indicates a trace amount.) Peptide production was examined using various L-amino acid amides for the carboxy component, and various L-amino acids for the amine component. […] Peptide production was examined in the case of using various L-alanine methyl esters for the carboxy component and C-protected L-amino acids for the amine component. […] Peptide production was examined in the case of using various amino acid methyl esters for the carboxy component and methylamine for the amine component. […] Peptide production was examined in the case of using β-amino acid ester for the carboxy component or β-amino acid for the amine component. […] (The “tr” indicates a trace amount.) Oligopeptide production was examined in the case of using L-amino acid ester for the carboxy component and peptide for the amine component. […] Substrate specificity was additionally assessed using the same enzyme fraction as that used in Example 5. […] (A “+” mark indicates those for which production was confirmed but which were unable to be quantified due to the absence of a standard, while “tr” indicates a trace amount). Substrate specificity with respect to oligopeptide production was assessed using the same enzyme fraction as Example 26. […] (A “+” mark indicates those for which production was confirmed but which were unable to be quantified due to the absence of a standard, while “tr” indicates a trace amount). It should be noted that hydrochlorides were used for all of the carboxy components.

Compound	Produced peptide (mM)
C[C@H](N)C(=O)N[C@@H](CS)C(=O)O [L-Ala-L-CySH] (H-Ala-Cys-OH)	+

same assay, conditions: L or D amino acid methyl ester hydrochloride 100 mM, L or D amino acid 150 mM, pH 9.0, 25° C., 3 hours

Compound	Produced peptide (mM)
C[C@@H](N)C(=O)N[C@H](CCC(N)=O)C(=O)O [D-Ala-D-Gln] (H-[dA]-[dQ]-OH)	tr

same assay, conditions: L-amino acid methyl ester hydrochloride 100 mM, 150 mM L-glutamine, pH 9.0, 25° C., 3 hours

Compound	Produced peptide (mM)
NC(=O)CC[C@H](NC(=O)[C@@H](N)CC(N)=O)C(=O)O [L-Asn-L-Gln] (H-Asn-Gln-OH)	+
NC(=O)CC[C@H](NC(=O)[C@@H](N)CS)C(=O)O [L-CySH-L-Gln] (H-Cys-Gln-OH)	+
NC(=O)CC[C@H](NC(=O)[C@@H](N)Cc1cnc[nH]1)C(=O)O [L-His-L-Gln] (H-His-Gln-OH)	+
CC(C)C[C@H](N)C(=O)N[C@@H](CCC(N)=O)C(=O)O [L-Leu-L-Gln] (H-Leu-Gln-OH)	+
NCCCC[C@H](N)C(=O)N[C@@H](CCC(N)=O)C(=O)O [L-Lys-L-Gln] (H-Lys-Gln-OH)	+
NC(=O)CCC(NC(=O)C(N)Cc1c[nH]c2ccccc12)C(=O)O [L-Trp-L-Gln] (H-Trp-Gln-OH; configuration not given here)	+
NC(=O)CC[C@H](NC(=O)[C@@H](N)CCC(=O)O)C(=O)O [α-L-Glu-L-Gln] (H-Glu-Gln-OH)	+
NC(=O)CC[C@H](NC(=O)C[C@H](N)C(=O)O)C(=O)O [β-L-Asp-L-Gln]	tr
NC(=O)CC[C@H](NC(=O)CC[C@H](N)C(=O)O)C(=O)O [γ-L-Glu-L-Gln]	+

same assay, conditions: carboxy component 25 mM, amine component 50 mM, 0.1 unit enzyme, 25° C., reaction time 3 hr

Compound	Produced peptide (mM)
NC(=O)CC[C@H](NC(=O)[C@@H](N)Cc1ccc(Cl)cc1)C(=O)O [H-Cl-F-Phe-H-Gln-OH]	tr

same assay, conditions: carboxy component 40 mM, amine component 40 mM, 0.1 unit enzyme, 25° C., reaction time 3 hr

Compound	Produced peptide (mM)
NC(=O)CC[C@H](NC(=O)[C@@H](N)Cc1ccc2ccccc2c1)C(=O)O [H-2-Nal-H-Gln-OH] (H-[2Nal]-Gln-OH)	tr

same assay, conditions: carboxy component 100 mM, amine component 150 mM, 0.1 unit enzyme, 25° C., reaction time 2 hr

Compound	Produced peptide (mM)
CC(C)(C)OC[C@H](N)C(=O)N[C@@H](CCC(N)=O)C(=O)O [H-Ser(tBu)-Gln-OH] (H-Ser(tBu)-Gln-OH)	tr

same assay, conditions: carboxy component 100 mM, amine component 150 mM, 0.1 unit enzyme, 25° C., reaction time 3 hr

Compound	Produced peptide (mM)
CN[C@@H](C)C(=O)N[C@@H](Cc1ccccc1)C(=O)O [H-N-Me-Ala-Phe-OH]	tr
NC(=O)CC[C@H](NC(=O)[C@@H](N)Cc1ccc(F)cc1)C(=O)O [H-p-F-Phe-H-Gln-OH]	tr
CC(C)(C)[C@H](N)C(=O)N[C@@H](CCC(N)=O)C(=O)O [H-t-Leu-H-Gln-OH] (H-[Tle]-Gln-OH)	tr

same assay, conditions: β-amino acid ester as carboxy component or β-amino acid as amine component; 100 mM / 150 mM, pH 9.0, 25° C., 3 hours

Compound	Produced peptide (mM)
C[C@H](NC(=O)CCN)C(=O)O [β-Ala-L-α-Ala]	tr

tested on: peptide-producing enzyme (Mono S fraction) from Empedobacter brevis strain FERM BP-8113; assay: Enzyme substrate specificity (1)-(10), (13), (14); format: biochemical; details: L-amino acid amide hydrochloride 100 mM as carboxy component, L-amino acid 150 mM, pH 9.0, 25° C., 3 hours
From the text: as §1

Compound	Produced peptide
C[C@@H](O)[C@H](N)C(=O)N[C@@H](CCC(N)=O)C(=O)O [L-Thr-L-Gln] (H-Thr-Gln-OH)	0.3 mM

same assay, conditions: L-amino acid ester 100 mM, amino acid or peptide amine component 150 mM, pH 9.0, 25° C., 3 hours

Compound	Produced peptide
Gly-L-Ala-L-Tyr	1.7 mM

same assay, conditions: L-amino acid methyl ester hydrochloride 100 mM, 150 mM L-glutamine, pH 9.0, 25° C., 3 hours

Compound	Produced peptide
C[C@@H](O)[C@H](N)C(=O)N[C@@H](CCC(N)=O)C(=O)O [L-Thr-L-Gln] (H-Thr-Gln-OH)	81.9 mM

tested on: enzyme (SP-Sepharose HP fraction) derived from Sphingobacterium sp. strain FERM BP-8124; assay: not given; format: biochemical; design: key to Produced peptide (mM): +: those peptides for which production was confirmed but which were unable to be quantified due to the absence of a standard; a trace amount; details: Table 15-1; carboxy component 100 mM, amine component 150 mM, 0.33 units enzyme, pH 9.0, 25° C., 1.5 hours
Experimental: Substrate specificity was examined for enzyme derived from Sphingobacterium sp. strain FERM BP-8124 (Depositary institution: National Institute for Advanced Industrial Science and Technology, International Patent Organism Depositary, Address of depositary institution: Central. 6, 1-1-1 Higashi, Tsukuba City, Ibaraki Prefecture, Japan, International deposit date: Jul. 22, 2002). 100 μl of 100 mM borate buffer (pH 9.0) containing the various carboxy components at a final concentration of 100 mM and the various amine components at a final concentration of 150 mM shown in Tables 15-1 to 15-4, the SP-Sepharose HP fraction enzyme purified in Example 22 (addition of 0.33 units in the reaction liquid) and 10 mM EDTA were allowed to react at 25° C. for 1.5 hours. […] In addition, hydrochlorides were used for all carboxy components.
Substrate specificity with respect to oligopeptide production was examined for enzyme derived from Sphingobacterium sp. strain FERM BP-8124 (Depositary institution: National Institute for Advanced Industrial Science and Technology,.International Patent Organism Depositary, Address of depositary institution: Chuo Dai-6, 1-1 Higashi 1-Chome, Tsukuba-shi, Ibaraki-ken, Japan, International deposit date: Jul. 22, 2002). A 100 μl aliquot of 100 mM borate buffer (pH 9.0) containing the various carboxy components at a final concentration of 100 mM and the various amine components at a final concentration of 150 mM shown in Table 16, the SP-Sepharose HP fraction enzyme purified in Example 22 (addition of 0.33 units in the reaction liquid) and 10 mM EDTA were allowed to react for 1.5 hours at 25° C. Furthermore, hydrochloride salts were used for all carboxy components.

Compound	Produced peptide (mM)
C[C@H](N)C(=O)N[C@@H](CS)C(=O)O [L-Ala-L-CySH] (H-Ala-Cys-OH)	+

same assay, conditions: Table 15-2; carboxy component 100 mM, L-Gln 150 mM, 0.33 units enzyme, pH 9.0, 25° C., 1.5 hours

Compound	Produced peptide
C[C@@H](O)[C@H](N)C(=O)N[C@@H](CCC(N)=O)C(=O)O [L-Thr-L-Gln] (H-Thr-Gln-OH)	36.1 mM

same assay, conditions: Table 16, oligopeptide production; carboxy component 100 mM, amine component 150 mM, 0.33 units enzyme, pH 9.0, 25° C., 1.5 hours

Compound	Produced peptide
Gly-L-Ala-L-Tyr	0.6 mM
